Data as given in article PMC6392468, “Inhibition of lipid droplet formation by Ser/Thr protein phosphatase PPM1D inhibitor, SL-176” (PLoS ONE, 2019).

Target: T1, PPM1D (Mus musculus, UniProt Q9QZ67)
T1 construct: His-mousePPM1D (1–413)
T1 sequence (Q9QZ67 1-413): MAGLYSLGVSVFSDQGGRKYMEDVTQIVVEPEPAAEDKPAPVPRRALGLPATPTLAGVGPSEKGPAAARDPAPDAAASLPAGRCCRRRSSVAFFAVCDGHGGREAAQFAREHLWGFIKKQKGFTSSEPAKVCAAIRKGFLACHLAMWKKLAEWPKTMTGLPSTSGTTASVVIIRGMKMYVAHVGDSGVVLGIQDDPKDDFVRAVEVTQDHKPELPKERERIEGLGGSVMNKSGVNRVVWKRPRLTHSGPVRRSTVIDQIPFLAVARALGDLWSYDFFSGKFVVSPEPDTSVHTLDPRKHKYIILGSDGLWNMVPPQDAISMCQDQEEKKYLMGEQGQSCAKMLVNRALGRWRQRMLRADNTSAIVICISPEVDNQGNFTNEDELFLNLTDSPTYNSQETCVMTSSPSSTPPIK
Assay: in vitro phosphatase assay, released free phosphate by BIOMOL GREEN, p53-derived peptide substrate
Assay type: biochemical

Compound: CC[Si](CC)(CC)O[C@@H]1CCC[C@@H]2[C@@H]1C[C@H](O[Si](C)(C)C(C)(C)C)C[C@@]2(C)C(=O)O [SL-176]
- IC50: 112 ± 12 nM
